Measurements as given in patent publication US7795281B2, “Optically active dihydropyridine derivative” (Daiichi Sankyo Company, Limited, priority 2002, dated 2010).

Legend:
L calcium channel = molecular target: T1, L calcium channel (Sus scrofa, UniProt A0A8W4FNC0); assay: Receptor binding experiment using porcine myocardial microsomes (3H-nitrendipine); details: for IC50 / Ki: porcine myocardial microsomes, average of two experiments; for IC50: 3H-nitrendipine 0.1 nM, read-out: IC50 (50% inhibitory concentration of specific binding); for Ki: Ki=IC50/(1+[L]/Kd), read-out: Ki (inhibition constant)
T1 construct: from tissue; host or cells: porcine myocardium (microsome fraction)
Description: Receptor Binding Experiment Using Porcine Myocardial Microsomes
Porcine myocardial microsomes were used for the source of the L calcium channel, while ^3H-nitrendipine was used for the ligand of the L calcium channel. The microsomes (0.2 mg protein/ml), ^3H-nitrendipine (0.1 nM) and test drug (racemic form, R form or S form) were allowed to react at room temperature for 30 minutes in HEPES buffer (50 mM, pH 7.4) followed by measurement of the ^3H-nitrendipine that bound to the microsome fraction with a liquid scintillation counter. The count in the presence of 10 μM non-labeled nitrendipine (amount of non-specific binding) was then subtracted to determine the amount of specific binding. The relationship between the concentration and inhibition rate of specific binding was approximated to a logistic curve for each test drug to determine IC50 (50% inhibitory concentration of specific binding). The Ki value (inhibition constant) for each test drug was then determined from the following formula using the Kd (dissociation constant) of nitrendipine as separately determined from a Scatchard plot: Ki=IC50/(1+[L]/Kd) (wherein [L] is the concentration of ^3H-nitrendipine).

[1] = test system: male spontaneously hypertensive rats; assay: Blood pressure lowering action in hypertensive rats; assay type: in vivo, rat
Description: Blood Pressure Lowering Action in Hypertensive Rats
Cannulas for measuring blood pressure and administering drug were inserted into the inguinal artery and inguinal vein, respectively, of male spontaneously hypertensive rats age 25 to 29 weeks followed by intravenous administration of a compound under anesthesia and measurement of blood pressure over time for the course of 120 minutes.
The results of comparing the racemic form (20 μg/kg) and R form (10 μg/kg) are shown in Table 2, while the results of comparing the R form (3 μg/kg, 10 μg/kg) and the S form (1000 μg/kg) in a different series of experiments are shown in Table 3.

T1 sequence (A0A8W4FNC0 1-2067): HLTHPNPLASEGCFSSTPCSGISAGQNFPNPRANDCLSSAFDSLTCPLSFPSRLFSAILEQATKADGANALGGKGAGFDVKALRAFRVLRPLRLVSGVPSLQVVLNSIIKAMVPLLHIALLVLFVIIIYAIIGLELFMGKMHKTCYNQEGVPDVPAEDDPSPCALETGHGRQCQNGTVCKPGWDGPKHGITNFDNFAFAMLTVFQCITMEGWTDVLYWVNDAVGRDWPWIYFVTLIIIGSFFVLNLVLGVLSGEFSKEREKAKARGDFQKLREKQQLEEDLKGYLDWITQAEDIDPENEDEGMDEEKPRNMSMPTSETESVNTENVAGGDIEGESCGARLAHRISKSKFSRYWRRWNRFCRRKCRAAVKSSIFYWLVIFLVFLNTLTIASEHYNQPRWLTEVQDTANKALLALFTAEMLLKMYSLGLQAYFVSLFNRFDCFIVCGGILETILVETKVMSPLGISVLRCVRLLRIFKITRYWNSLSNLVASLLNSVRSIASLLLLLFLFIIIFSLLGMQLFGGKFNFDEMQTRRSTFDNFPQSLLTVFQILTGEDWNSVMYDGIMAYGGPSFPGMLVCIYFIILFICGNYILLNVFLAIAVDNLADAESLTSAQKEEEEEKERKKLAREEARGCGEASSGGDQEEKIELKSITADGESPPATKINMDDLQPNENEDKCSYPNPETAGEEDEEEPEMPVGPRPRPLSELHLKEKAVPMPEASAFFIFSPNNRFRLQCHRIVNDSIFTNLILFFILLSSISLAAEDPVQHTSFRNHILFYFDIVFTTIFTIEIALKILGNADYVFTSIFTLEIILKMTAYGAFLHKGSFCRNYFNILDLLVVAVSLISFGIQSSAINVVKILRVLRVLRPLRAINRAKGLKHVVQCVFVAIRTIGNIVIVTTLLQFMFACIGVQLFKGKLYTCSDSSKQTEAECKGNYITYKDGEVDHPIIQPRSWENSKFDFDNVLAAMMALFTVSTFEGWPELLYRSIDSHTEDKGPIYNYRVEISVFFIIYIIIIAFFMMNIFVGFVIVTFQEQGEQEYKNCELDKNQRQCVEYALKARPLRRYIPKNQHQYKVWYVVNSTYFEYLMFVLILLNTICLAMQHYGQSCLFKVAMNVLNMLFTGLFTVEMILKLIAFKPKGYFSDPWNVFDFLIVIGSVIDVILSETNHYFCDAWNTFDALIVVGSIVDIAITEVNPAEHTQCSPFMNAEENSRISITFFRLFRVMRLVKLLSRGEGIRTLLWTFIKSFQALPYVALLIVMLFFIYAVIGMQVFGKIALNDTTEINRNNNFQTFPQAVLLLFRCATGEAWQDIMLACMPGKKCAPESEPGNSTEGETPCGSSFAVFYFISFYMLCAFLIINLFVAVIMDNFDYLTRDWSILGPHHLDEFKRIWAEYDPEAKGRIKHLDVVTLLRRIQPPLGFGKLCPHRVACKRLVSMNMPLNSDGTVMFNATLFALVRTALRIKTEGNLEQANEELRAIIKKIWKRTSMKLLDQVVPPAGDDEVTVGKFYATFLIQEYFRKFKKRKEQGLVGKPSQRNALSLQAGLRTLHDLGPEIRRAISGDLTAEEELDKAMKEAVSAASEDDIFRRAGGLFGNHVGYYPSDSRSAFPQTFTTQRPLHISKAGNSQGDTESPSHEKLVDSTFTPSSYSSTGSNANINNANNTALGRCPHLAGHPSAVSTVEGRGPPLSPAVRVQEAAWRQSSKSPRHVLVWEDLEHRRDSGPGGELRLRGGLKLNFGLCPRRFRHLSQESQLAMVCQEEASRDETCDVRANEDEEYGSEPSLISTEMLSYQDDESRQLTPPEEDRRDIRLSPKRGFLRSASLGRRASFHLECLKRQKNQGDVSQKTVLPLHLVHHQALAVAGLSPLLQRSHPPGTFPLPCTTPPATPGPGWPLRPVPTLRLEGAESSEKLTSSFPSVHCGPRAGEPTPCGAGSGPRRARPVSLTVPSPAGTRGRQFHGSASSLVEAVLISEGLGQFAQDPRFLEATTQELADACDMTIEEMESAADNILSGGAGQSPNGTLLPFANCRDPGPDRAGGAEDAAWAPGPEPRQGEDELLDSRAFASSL

With CC1=C(C(=O)OC(C)C)[C@@H](c2cccc([N+](=O)[O-])c2)C(C(=O)OC2CN(C(c3ccccc3)c3ccccc3)C2)=C(N)N1 [R form, (R)-2-amino-1,4-dihydro-6-methyl-4-(3-nitrophenyl)-3,5-pyridinedicarboxylic acid 3-(1-diphenylmethylazetidin-3-yl) ester 5-isopropyl ester] the “L calcium channel inhibitory activity, potency relative to S form” value (L calcium channel; R form vs S form) was “roughly 500 times”, the “L calcium channel inhibitory activity, potency relative to racemic form” value (L calcium channel; R form vs racemic form) was “more than twice as potent” and the IC50 (L calcium channel) was 1.3 nM. For the same compound, the Ki (L calcium channel) was 0.88 nM, the “Change in blood pressure” value ([1]; 3 μg/kg i.v., 0 minutes, Table 3 (different series of experiments), mean ± standard error) was 0 ± 0 mmHg and the “Change in blood pressure” value ([1]; 3 μg/kg i.v., 10 minutes, Table 3 (different series of experiments), mean ± standard error) was −3 ± 3 mmHg. The “Change in blood pressure” value ([1]; 3 μg/kg i.v., 30 minutes, Table 3 (different series of experiments), mean ± standard error) was −14 ± 3 mmHg, the “Change in blood pressure” value ([1]; 3 μg/kg i.v., 60 minutes, Table 3 (different series of experiments), mean ± standard error) was −28 ± 3 mmHg and the “Change in blood pressure” value ([1]; 3 μg/kg i.v., 90 minutes, Table 3 (different series of experiments), mean ± standard error) was −34 ± 5 mmHg. For the same compound, the “Change in blood pressure” value ([1]; 3 μg/kg i.v., 120 minutes, Table 3 (different series of experiments), mean ± standard error) was −34 ± 10 mmHg, the “Change in blood pressure” value ([1]; 10 μg/kg i.v., 0 minutes, Table 2, mean ± standard error) was 0 ± 0 mmHg and the “Change in blood pressure” value ([1]; 10 μg/kg i.v., 0 minutes, Table 3 (different series of experiments), mean ± standard error) was 0 ± 0 mmHg. The “Change in blood pressure” value ([1]; 10 μg/kg i.v., 10 minutes, Table 2, mean ± standard error) was −17 ± 4 mmHg, the “Change in blood pressure” value ([1]; 10 μg/kg i.v., 10 minutes, Table 3 (different series of experiments), mean ± standard error) was −23 ± 5 mmHg and the “Change in blood pressure” value ([1]; 10 μg/kg i.v., 30 minutes, Table 2, mean ± standard error) was −28 ± 5 mmHg. For the same compound, the “Change in blood pressure” value ([1]; 10 μg/kg i.v., 30 minutes, Table 3 (different series of experiments), mean ± standard error) was −36 ± 6 mmHg, the “Change in blood pressure” value ([1]; 10 μg/kg i.v., 60 minutes, Table 2, mean ± standard error) was −43 ± 7 mmHg and the “Change in blood pressure” value ([1]; 10 μg/kg i.v., 60 minutes, Table 3 (different series of experiments), mean ± standard error) was −49 ± 11 mmHg. The “Change in blood pressure” value ([1]; 10 μg/kg i.v., 90 minutes, Table 2, mean ± standard error) was −45 ± 7 mmHg, the “Change in blood pressure” value ([1]; 10 μg/kg i.v., 90 minutes, Table 3 (different series of experiments), mean ± standard error) was −54 ± 8 mmHg and the “Change in blood pressure” value ([1]; 10 μg/kg i.v., 120 minutes, Table 2, mean ± standard error) was −47 ± 6 mmHg. For the same compound, the “Change in blood pressure” value ([1]; 10 μg/kg i.v., 120 minutes, Table 3 (different series of experiments), mean ± standard error) was −61 ± 6 mmHg, the “Blood pressure lowering activity, potency relative to S form” value ([1]; R form vs S form) was “roughly 300 times” and the “Blood pressure lowering activity, potency relative to racemic form” value ([1]; R form vs racemic form) was “roughly twice as potent”.
CC1=C(C(=O)OC(C)C)[C@H](c2cccc([N+](=O)[O-])c2)C(C(=O)OC2CN(C(c3ccccc3)c3ccccc3)C2)=C(N)N1 [S form, (S)-2-amino-1,4-dihydro-6-methyl-4-(3-nitrophenyl)-3,5-pyridinedicarboxylic acid 3-(1-diphenylmethylazetidin-3-yl) ester 5-isopropyl ester] was tested, and the IC50 (L calcium channel) was 700 nM, the Ki (L calcium channel) was 460 nM and the “Change in blood pressure” value ([1]; 1000 μg/kg i.v., 0 minutes, Table 3 (different series of experiments), mean ± standard error) was 0 ± 0 mmHg. The “Change in blood pressure” value ([1]; 1000 μg/kg i.v., 10 minutes, Table 3 (different series of experiments), mean ± standard error) was −5 ± 1 mmHg, the “Change in blood pressure” value ([1]; 1000 μg/kg i.v., 30 minutes, Table 3 (different series of experiments), mean ± standard error) was −18 ± 6 mmHg and the “Change in blood pressure” value ([1]; 1000 μg/kg i.v., 60 minutes, Table 3 (different series of experiments), mean ± standard error) was −29 ± 10 mmHg. The “Change in blood pressure” value ([1]; 1000 μg/kg i.v., 90 minutes, Table 3 (different series of experiments), mean ± standard error) was −36 ± 7 mmHg and the “Change in blood pressure” value ([1]; 1000 μg/kg i.v., 120 minutes, Table 3 (different series of experiments), mean ± standard error) was −35 ± 4 mmHg.
In the case of CC1=C(C(=O)OC(C)C)C(c2cccc([N+](=O)[O-])c2)C(C(=O)OC2CN(C(c3ccccc3)c3ccccc3)C2)=C(N)N1 (racemic) [Racemic form, (±)-2-amino-1,4-dihydro-6-methyl-4-(3-nitrophenyl)-3,5-pyridinedicarboxylic acid 3-(1-diphenylmethylazetidin-3-yl) ester 5-isopropyl ester, reference compound], the IC50 (L calcium channel) is reported as 3.1 nM, the Ki (L calcium channel) is reported as 2.1 nM and the “Change in blood pressure” value ([1]; 20 μg/kg i.v., 0 minutes, Table 2, mean ± standard error) is reported as 0 ± 0 mmHg. The “Change in blood pressure” value ([1]; 20 μg/kg i.v., 10 minutes, Table 2, mean ± standard error) was −21 ± 2 mmHg, the “Change in blood pressure” value ([1]; 20 μg/kg i.v., 30 minutes, Table 2, mean ± standard error) was −35 ± 4 mmHg and the “Change in blood pressure” value ([1]; 20 μg/kg i.v., 60 minutes, Table 2, mean ± standard error) was −42 ± 6 mmHg. The “Change in blood pressure” value ([1]; 20 μg/kg i.v., 90 minutes, Table 2, mean ± standard error) was −45 ± 6 mmHg and the “Change in blood pressure” value ([1]; 20 μg/kg i.v., 120 minutes, Table 2, mean ± standard error) was −48 ± 7 mmHg.
